The values that follow come from patent US9581587B2, “Sperm staining and sorting methods” (INGURAN, LLC, priority 2011, dated 2017).

The test system of test [1] is membrane compromised sperm. Description: Dead gate intensity divided by live gate intensity, flow cytometer (Example 5). It is filed as cell-based. The following applies: for ability to create a dead gate population (ordering of the four dyes): from dead and live intensity data of Table 13. On the procedure:
(§1) A single Jersey bull was collected at an initial sperm concentration 1900×10^6 sperm/ml in a volume of 5 ml. The progressive motility of the sperm was 65% with normal morphologies greater than 65%.
(§2) The entire ejaculate of sperm was suspended in first staining buffer, specifically a 7.4 pH TALP described in TABLE 1, to a concentration of 160×10^6 sperm per mL (determined on nucleocounter) and divided into three aliquots of about 20 mL into 50 mL Falcon tubes and pre-warmed for 10 minutes at 34° C. The DNA selective fluorescent dye, Hoechst 33342, was added and samples were held at 34° C. for 60 minutes. 3 different Hoechst 33342 Stain Levels were used=12 μL, 14 μL and 16 μL per 2 mL (effective concentrations of 48 μM, 56 μM, 64 μM).
(§3) Preparation of the second buffer including the dead quenching dye—A 2 L bag of TALP, described in TABLE 1, was adjusted to pH 5.60 using HCl and then sterile filtered. […] For each of the four dyes tested (R40-red food dye No. 40, Y5—yellow food dye No. 5, Y6—yellow food dye No. 6 and PR—phenol red), an appropriate number of milligrams of each powder was placed in a Erlenmeyer Flask and then an exact amount of TALP pH 5.60 was added to create a 250 μM concentration of the dye. The result was a working TALP stock for each dye with a 100% (125 μM) relative amount of dye 50% relative (62.5 μM) and 20% relative (25 μM) solutions were made by dilution of 100% by TALP pH 5.60.
(§4) Single tubes of stained sperm at each of the three Hoechst 33342 concentrations were treated with TALP pH 5.60 which had no dead quenching dye present. Single tubes using Vitamin B12 (red colored chemical) with stock concentration of 15 μM (12% relative) were tested.
(§5) After this “bulk” staining for 60 minutes, 1 mL aliquots of stained sperm were combined with 1 mL aliquots of the second buffer including the dead quenching dyes. Samples sat for approximately 30 minutes at room temperature before being analyzed on a MoFlo SX (Beckman Coulter, USA) sperm sorting flow cytometer. Event rates were held as close to 13,000 as possible at the point of data acquisition.
(§6) The total number of individual treatments was 42 tubes, each containing 2 mL of stained sample. The alignment of the sorter was established using nuclei and confirmed with live sample from the 50% Red 40 series. Once good alignment was established, each tube was placed on the sorter long enough to establish a stabile dead gate population (about 30 seconds) and then a screenshot was taken and saved as a .jpeg image. This approach of rapidly documenting each sample is used to assure the most consistent alignment between all samples. Realignment of sorter will not cause differences in the intensities of live and dead gate populations but will cause differences in split quality.
(§7) FIG. 4 illustrates an example histogram. The ratio of dead gate intensity divided by live gate intensity is created by dividing the distance “A” by the distance “B” shown as a percentage. Lower values mean higher levels of quenching. The ratio of peak height divided by valley height is created by dividing the distance “C” by the distance “D”. A value of 1.00 means “no split” while higher values mean “better splits”.

For test [2], the system named is sperm. In words: Split quality, height of peak divided by height of valley (Example 5). Format: cell-based, Jersey bull. On the procedure:
as §1, §2, §3, §4, §5, §6, §7

Test [3] deals with membrane compromised sperm. Description: Dead gate intensity, yellow 5 and phenol red at higher concentrations (Example 6). Format: cell-based, Jersey bull. The following applies: for Intensity: Hoechst 12 μL/2 mL. On the procedure: (§8) A single Jersey bull was collected at an initial sperm concentration 1810×10^6 sperm/ml in a volume of 3.9 ml. The progressive motility of the sperm was 65% with normal morphologies greater than 50%.
(§9) Sperm were suspended at 320 million per mL in 30 mL a first buffer, (TALP described in table 1 at a pH 7.4) with 12 μL of Hoechst 33342 per 2 mL (48 μM) of stain and incubated for 1 hour at 34° C. Stained sperm was then placed as 1 mL aliquots in sample tubes and a 1 mL volume of the appropriate TALP was added. The same second buffer was used as example 1, namely a modified 5.60 pH TALP.
(§10) Each of the stained samples was sorted on a MoFlo SX (Beckman Coulter, USA) as described in Example 6. Screen shots were taken and the dead gate intensity and the split quality were measured in the same way described in Example 1 and recorded in TABLE 14.

Test [4] deals with sperm. Description: Split quality PV (Example 6). It is filed as cell-based, Jersey bull. The following applies: for PV: Hoechst 12 μL/2 mL, resulting pH 6.70. On the procedure:
as §8, §9, §10

Test [5] has as its system sperm. In words: Post thaw motility Elk (Example 3). It is filed as cell-based. The following applies: post thaw 0 HR; RED TALP with 16 μL Hoechst 33342, Y6 with 14 μL. On the procedure:
(§11) Each of deer and elk were collected in the Tris-egg yolk catch fluid described as a catch media in Example 1, and shipped for sorting.
(§12) A portion of each of the deer and the elk were stained by the red food dye No. 40 treatment 40% with 16 μL Hoechst 33342 and the yellow food dye No. 6 treatment with 14 μL Hoechst 33342 as described in Example 1.
(§13) Samples were each bulk sorted with the same machine and parameters described in Example 1. Both sorted X and sorted Y sperm were collected into a single catch. The sorted samples were then frozen like those described in Example 1.
(§14) Frozen thawed samples were then tested for post thaw motilities and post thaw DNA fragmentation. Post thaw motilities were slightly higher in Elk sorted with a yellow quencher, while a more significant difference existed in progressive motility. In Table 10, post thaw DNA fragmentation in Elk can be seen at about double after 48 hours when red food dye No. 40 is compared to yellow food dye No. 6 as a dead quencher.

Test [6] has as its system sperm. Description: Post thaw motility Deer (Example 3). Format: cell-based. The following applies: post thaw 0 HR; RED TALP with 16 μL Hoechst 33342, Y6 with 14 μL. How it is done:
as §11, §12, §13, §14

Setting [7] is: dye 25 μM, Average over Hoechst levels.
Setting [8] is: dye 62.5 μM, Average over Hoechst levels.
[9] abbreviates: dye 62.5 μM, Hoechst 12 μL/2 mL.
The mark [10] stands for this setting: dye 62.5 μM, Hoechst 14 μL/2 mL.
Where [11] appears, read: dye 62.5 μM, Hoechst 16 μL/2 mL.
[12] abbreviates: dye 125 μM, Average over Hoechst levels.

In the case of `O=S1(=O)OC(c2ccc(O)cc2)(c2ccc(O)cc2)c2ccccc21` [Phenol Red, phenolsulfonphthalein], the “Dead Intensity” value amounted to 94% in test [1] (setting [7]); 94% in test [1] (dye 25 μM, Hoechst 12 μL/2 mL); 97% in test [1] (dye 25 μM, Hoechst 14 μL/2 mL); 90% in test [1] (dye 25 μM, Hoechst 16 μL/2 mL); 87% in test [1] (setting [8]); 90% in test [1] (setting [9]). The “Dead Intensity” value turned out to be 90% in test [1] (setting [10]); 80% in test [1] (setting [11]); 79% in test [1] (setting [12]); 80% in test [1] (dye 125 μM, Hoechst 12 μL/2 mL); 80% in test [1] (dye 125 μM, Hoechst 14 μL/2 mL); 78% in test [1] (dye 125 μM, Hoechst 16 μL/2 mL). Further, the “Height of Peak/Height of Valley” value turned out to be 1.00 in the test on sperm [2] (dye 25 μM, Hoechst 16 μL/2 mL); 1.00 in the test with sperm [2] (setting [11]); 1.00 in the test on sperm [2] (dye 125 μM, Hoechst 16 μL/2 mL). The “amount of dye needed for a similar dead gate intensity ratio as red food dye No. 40 and yellow food dye No. 6” value in test [3] is “twelve”. Moreover, the Intensity worked out at 79% in test [3] (dye 125 μM, resulting pH 6.70); 70% in test [3] (dye 250 μM, resulting pH 6.70); 67% in test [3] (dye 500 μM, resulting pH 6.70); 55% in test [3] (dye 750 μM, resulting pH 6.70); 45% in test [3] (dye 875 μM, resulting pH 6.70); 41% in test [3] (dye 1250 μM, second buffer pH 5.60, resulting pH 6.70). In addition, in the test on sperm [4] (12 μL/2 mL Hoechst 33342, control samples had no split), the “split improvement in understained sample” value is reported as “created a split improvement”. In the test on sperm [4] (dye 125 μM), this compound showed a PV of 1.00.
`COc1cc(S(=O)(=O)O)c(C)cc1N=Nc1c(O)ccc2cc(S(=O)(=O)O)ccc12` [Red 40, 6-hydroxy-5-[(2-methoxy-5-methyl-4-sulfophenyl)azo]-2-naphthalenesulfonic acid, reference compound]: the Motile with sperm [5] came to 51.0. Also, the Progressive stood at 29.0 in the test on sperm [5] and 43.0 with sperm [6]. The “Dead Intensity” value was found to be 68% in test [1] (setting [7]); 68% in test [1] (dye 25 μM, Hoechst 12 μL/2 mL); 72% in test [1] (dye 25 μM, Hoechst 14 μL/2 mL); 65% in test [1] (dye 25 μM, Hoechst 16 μL/2 mL); 52% in test [1] (setting [8]); 53% in test [1] (setting [9]). Also, the “Dead Intensity” value in test [1] (setting [10]) stood at 53%; in test [1] (setting [11]), 50%; in test [1] (setting [12]), 38%; in test [1] (dye 125 μM, Hoechst 12 μL/2 mL) it was 37%; in test [1] (dye 125 μM, Hoechst 14 μL/2 mL) it was 41%; in test [1] (dye 125 μM, Hoechst 16 μL/2 mL), 35%. Further, the “ability to create a dead gate population (ordering of the four dyes)” value in test [1] was “about equal and better than the remaining dyes”. The “Height of Peak/Height of Valley” value in the test with sperm [2] (dye 25 μM, Average for 12 μL and 14 μL stain series) turned out to be 2.00; in the test on sperm [2] (dye 25 μM, Hoechst 16 μL/2 mL) it was 1.00; in the test on sperm [2] (setting [11]), 1.00; in the test on sperm [2] (dye 125 μM, Hoechst 14 μL/2 mL) it was 2.00. In test [3] (dye 62.5 μM, resulting pH 6.70), the Intensity was found to be 53%. Also, the PV in the test on sperm [4] (dye 62.5 μM) was found to be 1.00.
`O=S(=O)([O-])c1ccc(N=Nc2c(O)ccc3cc(S(=O)(=O)[O-])ccc23)cc1.[Na+].[Na+]` [Yellow 6, Disodium 6-hydroxy-5[(4-sulfophenyl)azo]-2-naphthalenesulfononate]: the Motile is 55.5 with sperm [5] and 67.5 in the test with sperm [6]. Also, the results for the Progressive in the test on sperm [5] and with sperm [6] were 38.0 and 53.2, respectively. In addition, the “Dead Intensity” value in test [1] (setting [7]) worked out at 71%; in test [1] (dye 25 μM, Hoechst 12 μL/2 mL), 68%; in test [1] (dye 25 μM, Hoechst 14 μL/2 mL), 74%; in test [1] (dye 25 μM, Hoechst 16 μL/2 mL), 70%; in test [1] (setting [8]), 51%; in test [1] (setting [9]), 50%. The “Dead Intensity” value was found to be 52% in test [1] (setting [10]); 52% in test [1] (setting [11]); 39% in test [1] (setting [12]); 37% in test [1] (dye 125 μM, Hoechst 12 μL/2 mL); 40% in test [1] (dye 125 μM, Hoechst 14 μL/2 mL); 40% in test [1] (dye 125 μM, Hoechst 16 μL/2 mL). The “ability to create a dead gate population (ordering of the four dyes)” value in test [1] was “about equal and better than the remaining dyes”. The “Height of Peak/Height of Valley” value was found to be 1.70 in the test with sperm [2] (setting [9]); 1.00 with sperm [2] (setting [11]); 1.80 with sperm [2] (dye 125 μM, Hoechst 14 μL/2 mL). Moreover, the Intensity in test [3] (dye 62.5 μM, resulting pH 6.70) was 50%. Moreover, the PV in the test with sperm [4] (dye 62.5 μM) is given as 1.00.
